Reference: patent publication US9266840B2, “Bicyclic heterocyclic compound” (Astellas Pharma Inc., priority 2011, dated 2016)
Like-named read-outs stand apart in the source and are kept apart here.

Key:
[1] = target: T1, recombinant human 11β-HSD1 (Homo sapiens, UniProt P28845); test: Human 11β-HSD1 inhibitory activity (HTRF cortisol detection); type: biochemical; settings: recombinant human 11β-HSD1, 200 nM cortisone, 40 μM NADPH, 1 h room temperature
T1 construct: made in house
Experimental: (§1) Test Method 1: Test for Measuring Human 11β-HSD1/11β-HSD2 Inhibitory Activity
(§2) 11β-HSD1 inhibitory activity was measured in the following order. In addition, an enzymatic reaction and assay was performed using a 384-well plate. The enzyme was prepared according to a document (Walker E. A. et al., Journal of Biological Chemistry, 2001, Vol. 276, p. 21343-21350). The reaction was performed in a manner in which various concentrations of test compounds were added to a reaction liquid including a 10 mM a phosphoric acid buffer (pH 6.6), 200 nM cortisone, 40 μM reduced nicotinamide adenine dinucleotide phosphate (NADPH), and recombinant human 11β-HSD1, followed by incubation for an hour at room temperature (10 μl/well). The test compound was dissolved in dimethylsulfoxide (DMSO), and the DMSO concentration was adjusted so as to be 1% in the reaction liquid. After the enzymatic reaction, cortisol was detected using Homogenous Time-Resolved Fluorescence (HTRF) to measure enzyme inhibitory activity. XL-665-labeled cortisol including 400 μM carbenoxolone and a cryptate-labeled cortisol antibody (CIS bio international) were added respectively to the plate at 5 μl/well, followed by incubation for 2 hours at room temperature, and then fluorescence intensity was measured using a fluorospectrometer (trade name: Discovery, manufactured by PerkinElmer Inc.), thereby calculating enzyme inhibitory activity from the ratio of fluorescence intensity between two wavelengths (665 nm/620 nm).
(§3) The results of measurement were calculated by obtaining the average of the values of three wells under the same condition. The ratio obtained when DMSO was added instead of the test compound was regarded as 0%, and the ratio obtained when 11β-HSD1 or 11β-HSD2 was not added was regarded as 100%, whereby a concentration at which the test compound suppresses the enzyme activity by 50% was calculated as IC50 of the inhibitory activity of the compound.

[2] = tested on: spinal nerve ligation model; test: Test for spinal nerve ligation model (von Frey hair test); type: in vivo, rats (SD, male); settings: 1 mg/kg orally, 1 hour before evaluation, threshold of 50% retraction response, pseudo-operation = 100%, solvent = 0%
Experimental: Test Method 3: Test for Spinal Nerve Ligation Model This test was performed according to Pain, 1992, Vol. 50, p 355-363. The skin and muscle in the lumbar region of rats (SD, male, 5- to 6-week old) were excised under pentobarbital anesthesia, and a lumbar L6 transverse process was removed to expose lumbar nerves. L5 and L6 spinal nerves were ligated with a silk thread, and then the wound was sutured. The procedure was performed in the left side. In addition, in the case of pseudo-operation, the wound was sutured without performing nerve ligation. The drug efficacy was evaluated on the postoperative days 7 to 12 by von Frey hair test. The threshold of retraction response was calculated according to Journal of Neuroscience Methods, 1994, Vol. 53, p 55-63. By using 8 types of von Frey filaments (0.41 g to 15.14 g), the sole of the rat's hindlimb was stimulated, and the threshold of 50% retraction response was determined by an up-and-down method. […] The test substance was evaluated by calculating the improvement rate of the test substance-administered group, under the condition that the threshold of the procedure-performed limb of the pseudo-operation animal group was regarded as 100% and the threshold of the procedure-performed limb of the solvent-administered animal group having undergone operation was regarded as 0%.

[3] = tested on: cortisol in the brain homogenate; test: Pharmacokinetic test under cortisone load (brain cortisol by ELISA); type: in vivo, male ddY mice; settings: Mus musculus; ddY mice, 1 mg/kg orally; cortisone 1 mg/kg i.p. after 30 min, brain collected 20 min later; read-out: inhibition rate (cortisol in brain)
Experimental: Test Method 6: Pharmacokinetic Test Under Cortisone Load
A 0.5% methyl cellulose solution or a 0.5% methyl cellulose suspension including the test substance was orally administered to 5-week old male ddY mice. After 30 minutes, cortisone was intraperitoneally administered at 1 mg/kg, and 20 minutes later, the brain was collected. A phosphoric acid buffer (pH 7.0) was added to the collected brain sample, in an amount that was 9 times the weight of the brain, thereby preparing 10% brain homogenate. The quantity of cortisol in the brain homogenate was determined by ELISA, and the inhibition rate resulting from the test substance was calculated, under the condition that the amount of cortisol produced from the mouse orally administered with 0.5% methyl cellulose was regarded as 100%.

[4] = tested on: model with fibromyalgia caused by repeated reserpine administration; test: Test for model with fibromyalgia caused by repeated reserpine administration (muscle tenderness threshold); type: in vivo, rats (SD, male); settings: 10 mg/kg orally, calculated point in time 60 min, healthy rat = 100%, reserpine + solvent = 0%
Experimental: Test Method 4: Test for Model with Fibromyalgia Caused by Repeated Reserpine Administration
This test was performed according to Pain, 2009, Vol. 146, p 26-33., by using rats (SD, male, 7-week old).
The threshold of muscle tenderness was measured according to the method of Schafers et al. (Pain, 2003, Vol. 104, p 579-588). A pressure stimulus slowly increasing up to 250 g was applied to the gastrocnemius muscle of the right lower leg of the rat. […] The measurement was performed 3 times for each point in time, and the average thereof was taken as a measured value.
A solvent (0.5% aqueous acetic acid) or reserpine (1 mg/kg) was subcutaneously administered to the back of the rat once a day for three days. The dose of both the solvent and reserpine administered was 1 mL per 1 kg of the body weight of the animal. 6 days after the beginning of the administration of the solvent or reserpine, the muscle tenderness threshold of each rat was measured, and the rats were grouped such that the difference in the average of threshold between the respective groups was reduced. The drug efficacy evaluation was performed on the next day. […] 30, 60, and 120 minutes after the administration, the muscle tenderness threshold was measured. For healthy rats, the drug was not administered, and only the muscle tenderness threshold was measured. […]

[5] = target: T2, recombinant human 11β-HSD2 (Homo sapiens, UniProt P80365); test: Human 11β-HSD2 inhibitory activity (HTRF); type: biochemical; settings: recombinant human 11β-HSD2, 200 nM cortisol, 200 μM NAD, 2 h 37° C.
T2 sequence (P80365 1-405): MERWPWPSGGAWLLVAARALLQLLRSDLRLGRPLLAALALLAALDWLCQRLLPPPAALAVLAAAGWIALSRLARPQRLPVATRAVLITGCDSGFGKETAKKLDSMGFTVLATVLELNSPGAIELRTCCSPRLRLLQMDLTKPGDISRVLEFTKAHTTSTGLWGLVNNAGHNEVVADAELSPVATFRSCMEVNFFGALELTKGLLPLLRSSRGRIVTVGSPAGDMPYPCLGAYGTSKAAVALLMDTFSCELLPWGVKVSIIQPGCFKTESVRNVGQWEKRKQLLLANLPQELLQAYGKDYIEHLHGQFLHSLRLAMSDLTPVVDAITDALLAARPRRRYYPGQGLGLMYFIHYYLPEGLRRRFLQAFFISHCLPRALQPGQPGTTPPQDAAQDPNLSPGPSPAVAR
Experimental: as §1, §2
11β-HSD2 inhibitory activity was measured in the same manner as in the measurement of the 11β-HSD1 inhibitory activity, except for the conditions of the enzymatic reaction. The enzymatic reaction was performed in the manner in which various concentrations of test substances were added to a reaction liquid including 40 mM tris-hydrochloric acid buffer (Tris-HCl) (pH 8.0), 200 nM cortisol, 200 μM nicotinamide adenine dinucleotide (NAD), and recombinant human 11β-HSD2, followed by incubation for 2 hours at 37° C. (10 μl/well).
as §3

[6] = Pharmacokinetic test (plasma and brain concentration, LC-MS/MS); type: in vivo; settings: male, mouse, po, mice, 1 mg/kg orally, an hour after administration
Experimental: Test Method 5: Pharmacokinetic Test
A 0.5% methyl cellulose suspension including the test substance was orally administered to 5-week old male mice, and the blood and brain were collected after a certain time passed from the administration. The collected blood sample was treated with sodium heparin, and then the plasma was separated, thereby preparing a plasma sample. In addition, a phosphoric acid buffer (pH 7.0) was added to the collected brain sample, in an amount that was 4 times the weight of the brain, thereby preparing 20% brain homogenate. The concentration of the respective test substances in the plasma and brain was measured using LC-MS/MS. An hour after Example 8-1 was administered at 1 mg/kg, the concentration of the substance in the plasma was 153 ng/ml, and the concentration in the brain was 58 ng/ml.

[7] = tested on: spontaneous alternation behavior disorder induced by scopolamine; test: Test for spontaneous alternation behavior disorder induced by scopolamine (Y-maze); type: in vivo, male ddY mice; settings: oral administration, ddY mice, scopolamine 0.5 mg/kg i.p.
Experimental: Test Method 2: Test for Spontaneous Alternation Behavior Disorder Induced by Scopolamine Test drugs were orally administered to 5- to 7-week old male ddY mice. 10 minutes later, scopolamine was intraperitoneally administered to the animals at 0.5 mg/kg. 20 minutes later, the animal was put in Y-maze having arms with the same length and extending in three directions and allowed to freely explore for 8 minutes. During the exploration, spontaneous arm-alternating behavior (entering different arms 3 times consecutively) was counted to calculate the rate of spontaneous alternation (spontaneous alternation behavior/(number of times of entering−2)×100), thereby judging drug efficacy.

T1 sequence (P28845 whole entry): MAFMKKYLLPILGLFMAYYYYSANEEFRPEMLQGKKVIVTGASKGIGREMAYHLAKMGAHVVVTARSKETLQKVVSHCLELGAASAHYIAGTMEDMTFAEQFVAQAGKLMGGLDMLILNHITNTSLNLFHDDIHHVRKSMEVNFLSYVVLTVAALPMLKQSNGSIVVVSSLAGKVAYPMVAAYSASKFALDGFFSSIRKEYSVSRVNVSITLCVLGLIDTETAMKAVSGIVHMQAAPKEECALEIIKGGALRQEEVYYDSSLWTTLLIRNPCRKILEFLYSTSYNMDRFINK

Row | Compound | IC50 [1] | IC50 [5] | other results
1 | CC(C)Cc1ccc(C(=O)N(C2CC2)C2CCc3[nH]ncc3C2)cc1 (stereo not shown) [Example 237] | 0.04 µM |  | 
2 | COc1cc(OC(C)C)ccc1C(=O)N(C1CC1)C1CCc2[nH]ncc2C1 (stereo not shown) [Example 5, N-cyclopropyl-4-isopropoxy-2-methoxy-N-(4,5,6,7-tetrahydro-1H-indazol-5-yl)benzamide] | 0.056 µM |  | 
3 | CC(C)Oc1ccc(C(=O)N(C2CC2)C2CCc3[nH]ncc3C2)cc1 (single isomer, unassigned; (-)) [Example 8-1, (−)-N-cyclopropyl-4-isopropoxy-N-(4,5,6,7-tetrahydro-1H-indazol-5-yl)benzamide] | 0.026 µM | > 30 µM | Improvement rate % (applied dose) [2]: 73 (1 mg/kg) %; inhibition at 1 mg/kg [3]: 43%; Maximum improvement rate % (applied dose) [4]: 104 (10 mg/kg) %; concentration at 1 h ([6]; plasma, read-out: concentration of the substance in the plasma): 153 ng/mL; concentration at 1 h ([6]; brain homogenate, read-out: concentration in the brain): 58 ng/mL; Dose improving minimum spontaneous alternation rate [7]: 0.3 mg/kg
4 | Cc1cc(C(=O)N(C2CC2)C2CCc3n[nH]cc3C2)c(C)n1Cc1ccc(F)cc1F (stereo not shown) [Example 30] | 0.028 µM | > 3 µM | 
5 | N#Cc1ccccc1-c1ccc(C(=O)N(C2CC2)C2CCc3[nH]ncc3C2)c(F)c1 (stereo not shown) [Example 190] | 0.025 µM |  | 
6 | CC(F)(F)CCCn1ncc2c(C(=O)N(C3CC3)C3CCc4[nH]ncc4C3)cccc21 (stereo not shown) [Example 159] | 0.04 µM | > 30 µM | 
7 | Cn1ccc2c(C(=O)N(C3CC3)C3CCc4[nH]ncc4C3)cccc21 (stereo not shown) [Example 81] | 0.024 µM | > 30 µM | 
8 | COc1ccc(C(=O)N(C2CC2)C2CCc3[nH]ncc3C2)c2ccn(C)c12 (stereo not shown) [Example 132] | 0.038 µM | > 30 µM | 
9 | O=C(c1ccc(-c2ccccc2F)o1)N(C1CC1)C1CCc2[nH]ncc2C1 (stereo not shown) [Example 27] | 0.062 µM | > 3 µM | 

More lines, main results first:

Row | IC50 [1] | IC50 [5] | Compound | other results
10 | 0.053 µM |  | O=C(c1ccc(-c2c(F)cncc2F)cc1)N(C1CC1)C1CCc2n[nH]cc2C1 (stereo not shown) [Example 228] | 
11 | 0.088 µM |  | N#Cc1cc(F)ccc1-c1ccc(C(=O)N(C2CC2)C2CCc3[nH]ncc3C2)cc1 (stereo not shown) [Example 176] | 
12 | 0.048 µM | > 30 µM | N#Cc1ccccc1-c1ccc(C(=O)N(C2CC2)C2CCc3[nH]ncc3C2)cc1 (stereo not shown) [Example 1, 2′-cyano-N-cyclopropyl-N-(4,5,6,7-tetrahydro-1H-indazol-5-yl)biphenyl-4-carboxamide] | 
13 | 0.043 µM |  | O=C(c1ccc(-c2c(F)cccc2F)cc1)N(C1CC1)C1CCc2[nH]ncc2C1 (stereo not shown) [Example 216] | 
14 | 0.018 µM | > 3 µM | N#Cc1cccc(F)c1-c1ccc(C(=O)N(C2CC2)C2CCc3[nH]ncc3C2)cc1 (single isomer, unassigned; (-)) [Example 7-1, (−)-2′-cyano-N-cyclopropyl-6′-fluoro-N-(4,5,6,7-tetrahydro-1H-indazol-5-yl)biphenyl-4-carboxamide] | Improvement rate % (applied dose) [2]: 52 (1 mg/kg) %; Maximum improvement rate % (applied dose) [4]: 82 (10 mg/kg) %; Dose improving minimum spontaneous alternation rate [7]: 1.0 mg/kg
